Measurements reported in the supplement of paper PMC10981050.

Columns and labels:
Assay in all cases: cell viability relative to vehicle control; higher = less cytotoxic
Details in all cases: SRSF2 genotype: SRSF2 WT
MOLM14 = system: MOLM14
Description: (§1)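 Isogenic SRSF2 WT and CRISPR SRSF2 P95 mutant clones of MOLM14, OCI-AML2 and MARIMO were exposed to ROCK inhibitors at 7 doses (0.037 to 29.9 µM) for 48 h. Viability was read by CellTiter-Glo luminescence and normalised to the vehicle control on each plate (%).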

OCI-AML2 = system: OCI-AML2
Description: as §1

MARIMO = system: MARIMO
Description: as §1

O=C(NCc1cccc(O)c1)Nc1nc(-c2ccncc2)cs1 [RKI-1447]
cell viability [%]
Details | 0.037 µM | 0.129 µM | 0.369 µM | 0.997 µM | 3.49 µM | 9.97 µM | 29.9 µM
MARIMO | 102 | 101 | 101 | 98.4 | 94.49 | 75.9 | 20.3
MOLM14 | 97 | 80.3 | 70.7 | 66.31 | 60.68 | 33 | 1.24
OCI-AML2 | 98.1 | 73.5 | 44.7 | 34.5 | 27.9 | 22.8 | 4.32
